Legend:
HeLa cells = assay: Potentiation Factor (PF50): MMS growth inhibition, SRB assay; format: cell-based; conditions: MMS 0 to 10 μg/ml, ratio of IC50 of control cell growth to IC50 of cell growth + PARP inhibitor
Protocol: The Potentiation Factor (PF50) for compounds is calculated as a ratio of the IC50 of control cell growth divided by the IC50 of cell growth+PARP inhibitor. Growth inhibition curves for both control and compound treated cells are in the presence of the alkylating agent methyl methanesulfonate (MMS). The test compound was used at a fixed concentration of 30 nM and 200 nM. The concentrations of MMS were over a range from 0 to 10 μg/ml. Cell growth was assessed using the sulforhodamine B (SRB) assay (Skehan, P., et al., (1990) New colorimetric cytotoxicity assay for anticancer-drug screening. J. Natl. Cancer Inst. 82, 1107-1112.). 2,000 HeLa cells were seeded into each well of a flat-bottomed 96-well microtiter plate in a volume of 100 μl and incubated for 6 hours at 37° C. Cells were either replaced with media alone or with media containing PARP inhibitor at a final concentration of 30 nM or 200 nM. Cells were allowed to grow for a further 1 hour before the addition of MMS at a range of concentrations (typically 0, 1, 2, 3, 5, 7 and 10 μg/ml) to either untreated cells or PARP inhibitor treated cells. Cells treated with PARP inhibitor alone were used to assess the growth inhibition by the PARP inhibitor. […] Plates were gently shaken and left at room temperature for 30 minutes before measuring the optical density at 564 nm on a Microquant microtiter plate reader.

P-glycoprotein = target: T1, P-glycoprotein (Homo sapiens, UniProt P08183); assay: P-gp substrate activity: Dose Modification Ratio in KBA1 cells with/without Verapamil, SRB assay; format: in vitro ADME; conditions: IC50 in absence of Verapamil divided by IC50 in presence of 20 μM Verapamil, 5 days, DMR <1.5 = not a P-gp substrate
T1 construct: Hela cell line known as KBA1, which expressed high P-glycoprotein; endogenous in cells; host or cells: KBA1 cells (HeLa-derived, high P-gp); matched non-expressing line KB31
T1 sequence (P08183 whole entry): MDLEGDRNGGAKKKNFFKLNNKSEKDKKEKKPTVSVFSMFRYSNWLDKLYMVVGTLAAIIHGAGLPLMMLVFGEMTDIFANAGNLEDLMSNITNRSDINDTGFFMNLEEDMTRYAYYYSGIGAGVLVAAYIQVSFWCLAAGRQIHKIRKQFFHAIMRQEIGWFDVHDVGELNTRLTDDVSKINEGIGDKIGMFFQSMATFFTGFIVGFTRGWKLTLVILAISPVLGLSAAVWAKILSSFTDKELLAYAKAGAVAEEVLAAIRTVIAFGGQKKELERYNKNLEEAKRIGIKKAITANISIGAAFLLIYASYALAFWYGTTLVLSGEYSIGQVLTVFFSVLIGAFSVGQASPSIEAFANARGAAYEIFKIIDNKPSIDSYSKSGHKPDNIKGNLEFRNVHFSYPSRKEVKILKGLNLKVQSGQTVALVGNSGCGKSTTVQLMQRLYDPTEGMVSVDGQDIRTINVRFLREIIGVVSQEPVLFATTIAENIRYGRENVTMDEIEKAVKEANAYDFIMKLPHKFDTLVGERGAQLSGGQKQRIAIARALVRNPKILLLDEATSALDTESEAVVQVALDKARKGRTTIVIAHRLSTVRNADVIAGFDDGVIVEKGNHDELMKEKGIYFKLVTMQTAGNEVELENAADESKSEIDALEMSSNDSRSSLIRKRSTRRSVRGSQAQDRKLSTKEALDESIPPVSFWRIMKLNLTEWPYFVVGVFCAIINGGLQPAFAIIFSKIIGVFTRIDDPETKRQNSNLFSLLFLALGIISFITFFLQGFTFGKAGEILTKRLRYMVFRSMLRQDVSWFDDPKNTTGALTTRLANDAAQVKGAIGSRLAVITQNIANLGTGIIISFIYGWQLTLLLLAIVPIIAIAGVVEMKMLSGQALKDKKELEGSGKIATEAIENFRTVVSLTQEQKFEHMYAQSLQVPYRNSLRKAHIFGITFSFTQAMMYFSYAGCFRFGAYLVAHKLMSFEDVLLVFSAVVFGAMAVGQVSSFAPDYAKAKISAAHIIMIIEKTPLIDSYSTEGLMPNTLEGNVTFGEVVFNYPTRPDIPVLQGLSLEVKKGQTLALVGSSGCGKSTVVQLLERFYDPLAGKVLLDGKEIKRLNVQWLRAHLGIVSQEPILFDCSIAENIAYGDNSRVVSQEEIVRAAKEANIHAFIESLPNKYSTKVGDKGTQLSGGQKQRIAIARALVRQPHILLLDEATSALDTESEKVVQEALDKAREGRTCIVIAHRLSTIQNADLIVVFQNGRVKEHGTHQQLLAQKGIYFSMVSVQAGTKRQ
Protocol: Cells from the Hela cell line known as KBA1, which expressed high P-glycoprotein (ABC1a and ABC1b transporter glycoproteins also known as MDR1a and MDR1b) and the matched non-P-glycoprotein expressing line known as KB31, were seeded onto 96 well tissue culture plates with 80 μl per well of 1.00×10^4 cells/ml=800 cells/well [DMEM, 10% FBS, PSG] and left to adhere for 4 hours. After the incubation period 10 μl per well of 200 μM Verapamil (giving a final conc. of 20 μM) a known inhibitor of P-gp or vehicle media were added to various wells of the cell plates. The 96 well plates were left in the incubator for 1 hour prior to 10 μl of test compound (or the known substrate Etoposide as a reference control) or 10 μl PBS/1% DMSO vehicle (control wells) being added into either Verapamil containing or media control wells. […]
The cell plates were then incubated for 5 days prior to cell growth being assessed using the Sulforhodamine B (SRB) assay as described previously. The P-gp substrate activity for each compound was calculated using the cell growth activity of the tests compounds on the KBA1 cells in the presence or absence (control wells) of Verapamil. The Dose Modification Ratio (DMR) is calculated from the KBA1 where for each test compound a ratio of the IC50 of the compound in the absence of Verapamil is divided by the IC50 of cell growth in the presence of Verapamil. […]

[1] = target: T2, Mammalian PARP, isolated from Hela cell nuclear extract (Homo sapiens, UniProt P09874); assay: PARP inhibition assay (FlashPlate, 3H-NAD incorporation); format: biochemical; conditions: PARP enzyme activity; NAD 5 μM, 30° C., 45 minutes
T2 construct: isolated from Hela cell nuclear extract; endogenous in cells; host or cells: HeLa cell nuclear extract
T2 sequence (P09874 whole entry): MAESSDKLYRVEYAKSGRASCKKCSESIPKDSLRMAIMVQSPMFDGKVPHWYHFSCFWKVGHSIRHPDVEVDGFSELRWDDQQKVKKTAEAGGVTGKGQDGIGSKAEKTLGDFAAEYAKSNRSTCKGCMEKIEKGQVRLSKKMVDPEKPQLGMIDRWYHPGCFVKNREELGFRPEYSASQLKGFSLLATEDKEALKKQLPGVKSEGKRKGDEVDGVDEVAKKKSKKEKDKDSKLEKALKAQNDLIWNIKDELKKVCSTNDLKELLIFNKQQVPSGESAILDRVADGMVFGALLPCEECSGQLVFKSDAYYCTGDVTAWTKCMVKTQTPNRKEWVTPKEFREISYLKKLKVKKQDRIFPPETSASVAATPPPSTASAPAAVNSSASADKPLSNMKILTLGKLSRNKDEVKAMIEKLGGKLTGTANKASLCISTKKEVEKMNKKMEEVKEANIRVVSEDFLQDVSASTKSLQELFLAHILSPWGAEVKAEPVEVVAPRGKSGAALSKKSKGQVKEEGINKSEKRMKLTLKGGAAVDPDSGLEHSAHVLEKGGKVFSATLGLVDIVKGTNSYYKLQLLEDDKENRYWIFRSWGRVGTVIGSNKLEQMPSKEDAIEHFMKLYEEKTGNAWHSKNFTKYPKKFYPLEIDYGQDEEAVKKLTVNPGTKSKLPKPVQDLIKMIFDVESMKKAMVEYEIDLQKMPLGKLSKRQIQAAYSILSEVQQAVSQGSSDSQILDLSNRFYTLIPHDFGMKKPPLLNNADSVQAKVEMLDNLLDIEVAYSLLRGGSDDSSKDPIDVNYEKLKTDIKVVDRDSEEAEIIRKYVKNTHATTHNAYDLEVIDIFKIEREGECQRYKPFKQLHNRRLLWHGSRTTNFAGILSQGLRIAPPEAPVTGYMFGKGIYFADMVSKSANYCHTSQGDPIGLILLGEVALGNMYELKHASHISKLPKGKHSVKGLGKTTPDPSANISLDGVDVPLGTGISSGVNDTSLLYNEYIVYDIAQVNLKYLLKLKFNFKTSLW
Protocol: In order to assess the inhibitory action of compound 1, the following assay was used to determine the IC50 value.
Mammalian PARP, isolated from Hela cell nuclear extract, was incubated with Z-buffer (25 mM Hepes (Sigma); 12.5 mM MgCl2 (Sigma); 50 mM KCl (Sigma); 1 mM DTT (Sigma); 10% Glycerol (Sigma) 0.001% NP-40 (Sigma); pH 7.4) in 96 well FlashPlates (TRADE MARK) (NEN, UK) and varying concentrations of said inhibitors added. The compound was diluted in DMSO and gave final assay concentrations of between 10 and 0.01 μM, with the DMSO being at a final concentration of 1% per well. The total assay volume per well was 40 μl.
After 10 minutes incubation at 30° C. the reactions were initiated by the addition of a 10 μl reaction mixture, containing NAD (5 μM), ^3H-NAD and 30 mer double stranded DNA-oligos. Designated positive and negative reaction wells were done in combination with compound wells (unknowns) in order to calculate % enzyme activities. The plates were then shaken for 2 minutes and incubated at 30° C. for 45 minutes. […]
The plates were transferred to a TopCount NXT (TRADE MARK) (Packard, UK) for scintillation counting. Values recorded are counts per minute (cpm) following a 30 second counting of each well.
The % enzyme activity for the compound is then calculated using the following equation: […]

COC1CCN(C(=O)c2cc(Cc3n[nH]c(=O)c4ccccc34)ccc2F)CC1 [Compound 1, 4-(4-Fluoro-3-(4-methoxypiperidine-1-carbonyl)benzyl)phthalazin-1(2H)-one]
PF50 at 30 nM (HeLa cells; test compound fixed at 30 nM): 3.0 | PF50 at 200 nM (HeLa cells; test compound fixed at 200 nM): 15 | Dose Modification Ratio (DMR) (P-glycoprotein): 1.3 | IC50 [1]: ~5 nM
